# Patent US7504537B2, “Hydroxamic acid derivative and MMP inhibitor containing the same as active ingredient” (Dainippon Sumitomo Pharma Co., Ltd., priority 2001, dated 2009)
# Tests used:
# [1] = test system: degeneration of cartilage; assay: Test 8 Rat meniscectomy model test (in vivo); conditions: male SD (IGS) rats, 50 mg/kg orally once a day for 3 weeks; injured group = 100%
# Description: Test 8 Rat Meniscectomy Model Test (in vivo)
# For this test male rats (6 weeks old SD (IGS)) were used. A meniscus of joint of a right hind limb was partially removed. Compound of Example 2 was orally administered for 3 weeks once a day in the amount of 50 mg/kg. The tissue speciman of the joint was prepared, and stained with safranin O/first green, and the degeneration of cartilage was evaluated. The degree of the degeneration of cartilage in the test compound group was calculated as 100% of the degree of that in the injured group. Cartilage degeneration rate was 33% (*; p<0.05, Steel-test)
# Adjuvant Arthritis = assay: Test 7 Adjuvant arthritis (in vivo); set-up: species or system rat; conditions: Lewis male rats, 50 mg/kg per os once a day for twelve days
# Excerpt: Test 7 Adjuvant Arthritis (in vivo) For this test Lewis male rats were used. The suspension prepared by suspending Mycobacterium butyricum in liquid paraffin in concentration of 0.5% was subcutaneously injected in a right hind paw. Ten days later the rats in which the definite secondary inflammation on a left hind paw was observed were selected, and to the rats the compound (Example 2) suspended in 0.5% methyl cellulose was orally administered for twelve successive days once a day. Five hours later after finishing administration the volume of the hind paws was compared with the volume when the administration was initiated, and the inhibition activity of edema was evaluated based on this difference.
smiles,measurement,setting,value
"CC(C)CN(C1(C(=O)NO)CCCC1)S(=O)(=O)c1ccc(Oc2ccc(S(C)(=O)=O)cc2)cc1 [Example 2, N-hydroxy 1-[isobutyl({4-[4-(methylsulfonyl)phenoxy]phenyl}sulfonyl)amino]cyclopentanecarboxamide]",Cartilage degeneration rate,[1],33%
same,"Increase of edema, Non injected limb",Adjuvant Arthritis; control 1.07 ± 0.31,0.74 ± 0.16 mL
same,"Increase of edema, Injected limb",Adjuvant Arthritis; control −0.24 ± 0.45,-1.06 ± 0.47 mL
